Bridge positions count the residues as written; N and C are the ends. Square brackets hold non-standard residues; d marks the D form. Peptide text beside a SMILES is read from it. Hyp = O=C(O)[C@@H]1C[C@@H](O)CN1
Key:
hAMY3 receptor = target: T1, hAMY3 receptor (Homo sapiens, UniProt O60896+P30988); assay: cAMP assay for in vitro receptor activation, hAMY3-R; type: cell-based; settings: cAMP assay, hAMY3 receptor; read-out: hAMY3R EC50
T1 sequence (P30988 25-474): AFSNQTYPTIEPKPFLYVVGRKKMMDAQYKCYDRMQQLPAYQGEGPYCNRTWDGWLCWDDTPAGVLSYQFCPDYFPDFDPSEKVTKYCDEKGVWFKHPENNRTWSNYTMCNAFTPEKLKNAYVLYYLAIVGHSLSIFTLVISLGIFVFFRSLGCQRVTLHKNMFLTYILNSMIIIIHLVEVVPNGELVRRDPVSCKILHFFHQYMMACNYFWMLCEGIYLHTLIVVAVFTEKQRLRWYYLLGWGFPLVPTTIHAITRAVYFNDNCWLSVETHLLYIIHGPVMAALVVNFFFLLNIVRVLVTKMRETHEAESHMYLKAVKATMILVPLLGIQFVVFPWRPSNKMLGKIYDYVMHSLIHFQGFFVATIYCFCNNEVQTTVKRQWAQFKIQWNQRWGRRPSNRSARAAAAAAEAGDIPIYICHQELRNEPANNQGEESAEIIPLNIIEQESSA
T1 sequence (O60896 24-148 partner): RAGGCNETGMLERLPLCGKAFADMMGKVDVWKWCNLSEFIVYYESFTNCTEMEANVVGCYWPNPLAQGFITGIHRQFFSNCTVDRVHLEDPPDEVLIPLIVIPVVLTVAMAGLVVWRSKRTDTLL
Procedure, shortened: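 Read-out is TR-FRET cAMP signal, recorded one hour after reagent addition, following 30 min room-temperature stimulation of stable hAMY3 cells with graded compound doses in casein/IBMX (0.5 mM) buffer.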

hAM1 receptor = hAM1 receptor (Homo sapiens, UniProt O60895+Q16602); assay: cAMP assay for in vitro receptor activation, hAM1-R; type: cell-based; settings: cAMP assay, hAM1 receptor; read-out: hAM1R EC50
Chain of hAM1 receptor (Q16602 23-461): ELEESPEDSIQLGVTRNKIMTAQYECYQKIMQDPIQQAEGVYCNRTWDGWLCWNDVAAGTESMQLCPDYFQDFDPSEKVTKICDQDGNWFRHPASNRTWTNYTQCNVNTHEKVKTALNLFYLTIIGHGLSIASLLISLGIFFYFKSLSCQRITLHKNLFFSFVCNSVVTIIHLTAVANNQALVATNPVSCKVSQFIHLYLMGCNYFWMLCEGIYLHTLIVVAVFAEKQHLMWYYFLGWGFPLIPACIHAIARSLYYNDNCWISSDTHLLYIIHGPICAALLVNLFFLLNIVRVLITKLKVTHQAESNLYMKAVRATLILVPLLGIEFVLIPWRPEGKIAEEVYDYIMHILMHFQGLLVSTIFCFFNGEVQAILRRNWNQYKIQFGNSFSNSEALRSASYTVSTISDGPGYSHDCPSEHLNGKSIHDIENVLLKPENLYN
Chain of hAM1 receptor (O60895 43-175 partner): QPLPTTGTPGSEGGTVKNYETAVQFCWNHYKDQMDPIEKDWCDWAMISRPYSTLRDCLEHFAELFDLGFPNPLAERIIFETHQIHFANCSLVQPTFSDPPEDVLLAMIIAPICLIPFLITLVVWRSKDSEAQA
Procedure, shortened: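 A subcloned monoclonal line stably expressing hAM1 receptor is thawed and plated at 8000 cells/well. The assay buffer is DPBS with 0.05% casein and 0.5 mM IBMX, and receptor activation is followed by cAMP levels.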

[1] = Physical stability of peptide analogues (Thioflavin T fibrillation); type: physicochemical; settings: maximum ThT signal normalized between hAMY maximum and buffer background; 40° C., shaking, four days; pH 7 per table title
Procedure, shortened: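 Peptides in 50 mM sodium acetate pH 4 or 50 mM sodium phosphate pH 7 were preincubated 1 h, mixed with 4 μM ThT, held at 40° C with 700 rpm shaking before each read. Fluorescence (ex 450/em 480 nm) every 10 min for four days; LOESS-smoothed maximum signal normalized in percent between hAMY and buffer.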

CC(C)C[C@H](NC(=O)[C@H](Cc1c[nH]c2ccccc12)NC(=O)[C@H](CCC(N)=O)NC(=O)[C@@H](NC(=O)[C@@H](NC(=O)[C@@H]1CSSC[C@H](NC(=O)CN)C(=O)N[C@@H](CCCNC(=N)N)C(=O)N[C@@H](Cc2ccccc2)C(=O)NCC(=O)N[C@@H]([C@@H](C)O)C(=O)N1)[C@@H](C)O)C(C)C)C(=O)N[C@@H](C)C(=O)N[C@@H](Cc1c[nH]cn1)C(=O)N[C@@H](Cc1ccccc1)C(=O)N[C@@H](CC(C)C)C(=O)N[C@@H](Cc1ccc(O)cc1)C(=O)N[C@@H](CCC(N)=O)C(=O)N[C@@H](Cc1ccccc1)C(=O)N[C@H](C(=O)N[C@@H](CC(=O)O)C(=O)N[C@@H](CCCCN)C(=O)N[C@@H](CC(=O)O)C(=O)N[C@@H](CCCCN)C(=O)N[C@@H](CC(=O)O)C(=O)N[C@@H](CC(N)=O)C(=O)N[C@H](C(=O)N[C@@H](C)C(=O)N1CCC[C@H]1C(=O)N[C@@H](CCCNC(=N)N)C(=O)N[C@H](C(=O)N[C@@H](CC(N)=O)C(=O)N[C@H](C(=O)NCC(=O)N1CCC[C@H]1C(=O)N[C@@H](CCC(N)=O)C(=O)NCC(=O)N[C@@H](Cc1ccc(O)cc1)C(N)=O)C(C)C)[C@@H](C)O)C(C)C)[C@@H](C)O [compound 326] (H-GCRFGTCTVQWLAHFLYQFTDKDKDNVAPRTNVGPQGY-NH2; disulfide 2-7; N-terminus assumed)
EC50 (hAMY3 receptor): 0.053 nM | EC50 (hAM1 receptor): > 5000 nM | Max ThT signal (%) [1]: 2.350%

CC(C)C[C@H](NC(=O)[C@H](Cc1c[nH]c2ccccc12)NC(=O)[C@H](CCC(N)=O)NC(=O)[C@@H](NC(=O)[C@@H](NC(=O)[C@@H]1CSSC[C@H](NC(=O)CN)C(=O)N[C@@H](CCCNC(=N)N)C(=O)N[C@@H](Cc2ccccc2)C(=O)NCC(=O)N[C@@H]([C@@H](C)O)C(=O)N1)[C@@H](C)O)C(C)C)C(=O)N[C@@H](C)C(=O)N[C@@H](Cc1c[nH]cn1)C(=O)N[C@@H](Cc1ccccc1)C(=O)N[C@@H](CC(C)C)C(=O)N[C@@H](Cc1ccc(O)cc1)C(=O)N[C@@H](CCC(N)=O)C(=O)N[C@@H](Cc1ccccc1)C(=O)N[C@H](C(=O)N[C@@H](CC(=O)O)C(=O)N[C@@H](CCCCN)C(=O)N[C@@H](CC(=O)O)C(=O)N[C@@H](CCCCN)C(=O)N[C@@H](CC(=O)O)C(=O)N[C@@H](CC(N)=O)C(=O)N[C@H](C(=O)N[C@@H](C)C(=O)N1CCC[C@H]1C(=O)N[C@@H](CCCNC(=N)N)C(=O)N[C@H](C(=O)N[C@@H](CC(N)=O)C(=O)N[C@H](C(=O)NCC(=O)N[C@@H](CO)C(=O)N[C@@H](CC(N)=O)C(=O)N[C@H](C(=O)N[C@@H](Cc1ccc(O)cc1)C(N)=O)[C@@H](C)O)C(C)C)[C@@H](C)O)C(C)C)[C@@H](C)O [compound 327] (H-GCRFGTCTVQWLAHFLYQFTDKDKDNVAPRTNVGSNTY-NH2; disulfide 2-7; N-terminus assumed)
EC50 (hAMY3 receptor): 0.09 nM | EC50 (hAM1 receptor): > 5000 nM | Max ThT signal (%) [1]: 3.600%

CC[C@H](C)[C@H](NC(=O)[C@H](CCC(N)=O)NC(=O)[C@H](Cc1c[nH]cn1)NC(=O)[C@H](C)NC(=O)[C@H](CC(C)C)NC(=O)[C@H](Cc1c[nH]c2ccccc12)NC(=O)[C@H](CCC(N)=O)NC(=O)[C@@H](NC(=O)[C@@H](NC(=O)[C@@H]1CSSC[C@H](NC(=O)[C@@H](N)CCCCN)C(=O)N[C@@H](CC(N)=O)C(=O)N[C@@H]([C@@H](C)O)C(=O)N[C@@H](C)C(=O)N[C@@H]([C@@H](C)O)C(=O)N1)[C@@H](C)O)C(C)C)C(=O)N[C@@H](Cc1ccc(O)cc1)C(=O)N[C@@H](CCC(N)=O)C(=O)N[C@@H](Cc1ccccc1)C(=O)N[C@H](C(=O)N[C@@H](CC(=O)O)C(=O)N[C@@H](C)C(=O)N[C@@H](CC(=O)O)C(=O)N[C@@H](CCCCN)C(=O)N[C@@H](CC(=O)O)C(=O)N[C@@H](CC(N)=O)C(=O)N[C@H](C(=O)N[C@@H](C)C(=O)N1CCC[C@H]1C(=O)N1CCC[C@H]1C(=O)N[C@H](C(=O)N[C@@H](CC(N)=O)C(=O)N[C@H](C(=O)NCC(=O)N[C@@H](CO)C(=O)N[C@@H](CC(N)=O)C(=O)NCC(=O)N1C[C@H](O)C[C@H]1C(N)=O)C(C)C)[C@@H](C)O)C(C)C)[C@@H](C)O [compound 328] (H-KCNTATCTVQWLAHQIYQFTDADKDNVAPPTNVGSNG[Hyp]-NH2; disulfide 2-7; N-terminus assumed)
EC50 (hAMY3 receptor): 0.01 nM | EC50 (hAM1 receptor): > 5000 nM | Max ThT signal (%) [1]: 33.250%

CC[C@H](C)[C@H](NC(=O)[C@H](CCC(N)=O)NC(=O)[C@H](Cc1c[nH]cn1)NC(=O)[C@H](C)NC(=O)[C@H](CC(C)C)NC(=O)[C@H](Cc1c[nH]c2ccccc12)NC(=O)[C@H](CCC(N)=O)NC(=O)[C@@H](NC(=O)[C@@H](NC(=O)[C@@H]1CSSC[C@H](NC(=O)[C@@H](N)CCCCN)C(=O)N[C@@H](CC(N)=O)C(=O)N[C@@H]([C@@H](C)O)C(=O)N[C@@H](C)C(=O)N[C@@H]([C@@H](C)O)C(=O)N1)[C@@H](C)O)C(C)C)C(=O)N[C@@H](Cc1ccc(O)cc1)C(=O)N[C@@H](CCC(N)=O)C(=O)N[C@@H](Cc1ccccc1)C(=O)N[C@@H](CC(=O)O)C(=O)N[C@@H](CCCCN)C(=O)N[C@@H](CC(=O)O)C(=O)N[C@@H](CCCCN)C(=O)N[C@@H](CC(=O)O)C(=O)N[C@@H](CC(N)=O)C(=O)N[C@H](C(=O)N[C@@H](C)C(=O)N1CCC[C@H]1C(=O)N1CCC[C@H]1C(=O)N[C@H](C(=O)N[C@@H](CC(N)=O)C(=O)N[C@H](C(=O)NCC(=O)N[C@@H](CO)C(=O)N[C@@H](CC(N)=O)C(=O)NCC(=O)N1C[C@H](O)C[C@H]1C(N)=O)C(C)C)[C@@H](C)O)C(C)C [compound 329] (H-KCNTATCTVQWLAHQIYQFDKDKDNVAPPTNVGSNG[Hyp]-NH2; disulfide 2-7; N-terminus assumed)
EC50 (hAMY3 receptor): 0.032 nM | EC50 (hAM1 receptor): > 5000 nM | Max ThT signal (%) [1]: 6.350%

CC[C@H](C)[C@H](NC(=O)[C@H](CCC(N)=O)NC(=O)[C@H](Cc1c[nH]cn1)NC(=O)[C@H](C)NC(=O)[C@H](CC(C)C)NC(=O)[C@H](Cc1c[nH]c2ccccc12)NC(=O)[C@H](CCC(N)=O)NC(=O)[C@@H](NC(=O)[C@@H](NC(=O)[C@@H]1CSSC[C@H](NC(=O)[C@@H](N)CCCCN)C(=O)N[C@@H](CC(N)=O)C(=O)N[C@@H]([C@@H](C)O)C(=O)N[C@@H](C)C(=O)N[C@@H]([C@@H](C)O)C(=O)N1)[C@@H](C)O)C(C)C)C(=O)N[C@@H](Cc1ccc(O)cc1)C(=O)N[C@@H](CCC(N)=O)C(=O)N[C@@H](Cc1ccccc1)C(=O)N[C@H](C(=O)N[C@@H](CC(=O)O)C(=O)N[C@@H](CCCCN)C(=O)N[C@@H](CC(=O)O)C(=O)N[C@@H](CCCCN)C(=O)N[C@@H](CC(=O)O)C(=O)N[C@@H](CC(N)=O)C(=O)N[C@H](C(=O)N[C@@H](C)C(=O)N1CCC[C@H]1C(=O)N1CCC[C@H]1C(=O)N[C@H](C(=O)N[C@@H](CC(N)=O)C(=O)N[C@H](C(=O)NCC(=O)N[C@@H](CO)C(=O)N[C@@H](CC(N)=O)C(=O)NCC(=O)N1C[C@H](O)C[C@H]1C(N)=O)C(C)C)[C@@H](C)O)C(C)C)[C@@H](C)O [compound 330] (H-KCNTATCTVQWLAHQIYQFTDKDKDNVAPPTNVGSNG[Hyp]-NH2; disulfide 2-7; N-terminus assumed)
EC50 (hAMY3 receptor): 0.008 nM | EC50 (hAM1 receptor): > 5000 nM | Max ThT signal (%) [1]: 14.600%
